ChEMBL document CHEMBL1121511, “Antileukemic compounds derived from the chemical modification of macrocyclic trichothecenes. 1. Derivatives of verrucarin A” (1980)

Test system: P388
Assay: Antileukemic activity in vivo against P-388 mouse leukemia cell expressed as Dose
Assay type: functional

Work on `CC(=O)OC1C(=O)OC[C@]23CC[C@H](C)C[C@H]2O[C@@H]2C[C@@H](OC(=O)/C=C\C=C\C(=O)OCCC1C)[C@@]3(C)C21CO1` (stereo partly specified) [VERRUCARIN A ACETATE] yielded a Dose of over 1.
